#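 Results reflect a 48-hour exposure of cells in 96-well plates to compound at five concentrations. Abbreviation: GI50, concentration required for 50% inhibition of growth. TGI: concentration producing complete growth inhibition.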
# Columns and labels:
# Test in all cases: NCI-60 cell line screen, 48 h
# [1] = system: SR leukemia
# [2] = system: SK-OV-3 ovarian
# [3] = system: OVCAR-3 ovarian
# [4] = system: HS 578T breast
# [5] = system: SN12C renal
# [6] = system: OVCAR-8 ovarian
# [7] = system: MDA-MB-231 breast
# [8] = system: COLO 205 colon
# [9] = system: SW-620 colon
# [10] = system: BT-549 breast
# [11] = system: HCT-116 colon
# [12] = system: LOX IMVI melanoma
# [13] = system: HOP-92 NSCLC
# [14] = system: A549 NSCLC
# [15] = system: CCRF-CEM leukemia
# [16] = system: MDA-MB-435
# [17] = system: MCF7 breast
# [18] = system: SK-MEL-2 melanoma
# [19] = system: 786-0 renal
# [20] = system: SK-MEL-5 melanoma
# [21] = system: HL-60(TB) leukemia
# [22] = system: MOLT-4 leukemia
# [23] = system: CAKI-1 renal
# [24] = system: T-47D breast
# [25] = system: MALME-3M melanoma
# [26] = system: NCI-H226 lung
# [27] = system: HOP-62 NSCLC
# [28] = system: HCC-2998 colon
# [29] = system: SNB-75 CNS
# [30] = system: M14 melanoma
# [31] = system: RPMI-8226 leukemia
# [32] = system: SF-268 CNS
# [33] = system: K-562 leukemia
# [34] = system: SF-539 CNS
# [35] = system: SF-295 CNS
# [36] = system: EKVX NSCLC
# [37] = system: IGROV1 ovarian
# [38] = system: HT29 colon
# [39] = system: A498 renal
# [40] = system: NCI-H460 lung
# [41] = system: KM12 colon
# [42] = system: NCI-H23 lung
# [43] = system: UACC-62 melanoma
# [44] = system: SK-MEL-28 melanoma
# [45] = system: PC-3 prostate
# [46] = system: ACHN renal
# [47] = system: OVCAR-5 ovarian
# [48] = system: TK-10 renal
# [49] = system: NCI/ADR-RES ovarian
# [50] = system: RXF 393 renal
# [51] = system: OVCAR-4 ovarian
# [52] = system: UACC-257 melanoma
# [53] = system: NCI-H522 lung
# [54] = system: SNB-19 CNS
# [55] = system: U251 CNS
# [56] = system: DU-145 prostate
# [57] = system: UO-31 renal
# [58] = system: HCT-15 colon
structure (smiles),measurement,setting,value
CCC(=C(c1ccc(OCCN2CCCCCC2)cc1)c1ccc(OCCN2CCCCCC2)cc1)c1ccc(Cl)cc1,GI50,[1],0.585 µM
same,TGI,[1],1.34 µM
same,GI50,[2],4.23 µM
same,TGI,[2],8.59 µM
same,GI50,[3],0.947 µM
same,TGI,[3],3.01 µM
same,GI50,[4],0.727 µM
same,TGI,[4],1.87 µM
same,GI50,[5],3.44 µM
same,TGI,[5],8.58 µM
same,GI50,[6],4.28 µM
same,TGI,[6],9.41 µM
same,GI50,[7],2.06 µM
same,TGI,[7],7.76 µM
same,GI50,[8],0.586 µM
same,TGI,[8],1.21 µM
same,GI50,[9],0.555 µM
same,TGI,[9],1.21 µM
same,GI50,[10],3.38 µM
same,TGI,[10],7.52 µM
same,GI50,[11],0.582 µM
same,TGI,[11],1.36 µM
same,GI50,[12],0.502 µM
same,TGI,[12],1.01 µM
same,GI50,[13],1.34 µM
same,TGI,[13],6.07 µM
same,GI50,[14],1.11 µM
same,TGI,[14],4.21 µM
same,GI50,[15],0.657 µM
same,TGI,[15],1.79 µM
same,GI50,[16],0.644 µM
same,TGI,[16],1.36 µM
same,GI50,[17],0.0916 µM
same,TGI,[17],0.785 µM
same,GI50,[18],3.96 µM
same,TGI,[18],8.63 µM
same,GI50,[19],0.578 µM
same,TGI,[19],1.18 µM
same,GI50,[20],0.722 µM
same,TGI,[20],1.73 µM
same,GI50,[21],0.683 µM
same,TGI,[21],1.6 µM
same,GI50,[22],0.685 µM
same,TGI,[22],1.74 µM
same,GI50,[23],1 µM
same,TGI,[23],4.49 µM
same,GI50,[24],0.649 µM
same,TGI,[24],5.31 µM
same,GI50,[25],0.576 µM
same,TGI,[25],1.27 µM
same,GI50,[26],4.48 µM
same,TGI,[26],9.56 µM
same,GI50,[27],2.64 µM
same,TGI,[27],7.58 µM
same,GI50,[28],0.553 µM
same,TGI,[28],1.13 µM
same,GI50,[29],1.97 µM
same,TGI,[29],6.85 µM
same,GI50,[30],0.639 µM
same,TGI,[30],1.3 µM
same,GI50,[31],0.749 µM
same,TGI,[31],1.64 µM
same,GI50,[32],2.33 µM
same,TGI,[32],7.47 µM
same,GI50,[33],0.424 µM
same,TGI,[33],1.03 µM
same,GI50,[34],0.643 µM
same,TGI,[34],1.37 µM
same,GI50,[35],0.644 µM
same,TGI,[35],1.31 µM
same,GI50,[36],3.52 µM
same,TGI,[36],8.01 µM
same,GI50,[37],1.35 µM
same,TGI,[37],5.21 µM
same,GI50,[38],0.652 µM
same,TGI,[38],1.41 µM
same,GI50,[39],4.88 µM
same,TGI,[39],9.72 µM
same,GI50,[40],0.645 µM
same,TGI,[40],1.25 µM
same,GI50,[41],1.06 µM
same,TGI,[41],3.6 µM
same,GI50,[42],3.67 µM
same,TGI,[42],8.19 µM
same,GI50,[43],0.664 µM
same,TGI,[43],1.68 µM
same,GI50,[44],0.623 µM
same,TGI,[44],1.2 µM
same,GI50,[45],1.7 µM
same,TGI,[45],6.14 µM
same,GI50,[46],1.55 µM
same,TGI,[46],5.79 µM
same,GI50,[47],3.73 µM
same,TGI,[47],8.25 µM
same,GI50,[48],4.37 µM
same,TGI,[48],9 µM
same,GI50,[49],1.93 µM
same,TGI,[49],6.52 µM
same,GI50,[50],0.754 µM
same,TGI,[50],2.25 µM
same,GI50,[51],3.9 µM
same,TGI,[51],8.71 µM
same,GI50,[52],0.651 µM
same,TGI,[52],1.4 µM
same,GI50,[53],3.54 µM
same,TGI,[53],8.21 µM
same,GI50,[54],0.833 µM
same,TGI,[54],2.34 µM
same,GI50,[55],0.597 µM
same,TGI,[55],1.15 µM
same,GI50,[56],1.36 µM
same,TGI,[56],5.02 µM
same,GI50,[57],1.72 µM
same,TGI,[57],6.67 µM
same,GI50,[58],0.631 µM
same,TGI,[58],1.45 µM
